Reference: US20250042974A1, “LIPID MEDIATOR CHAPERONE AND USES THEREOF” (The Children's Medical Center Corporation, priority 2021, published 2025)
One block for each molecule: values may come before it.

How the values were obtained:
HUVEC = test: TEER analysis of endothelial barrier function; format: cell-based, human; conditions: Iloprost 200 nM; HDL-S1P 100 nM S1P; AUY954 1 μM
Experimental: Transendothelial Electrical Resistance (TEER) was performed on HUVEC as described previously (Swendeman et al, 2017). Essentially, HUVECs were maintained in HUVEC Growth Medium (HGM; M199 medium supplemented with 10% FCS (Corning), 1:100 Pen-Strep (Sigma), 8 mM Glutamine (Sigma), Heparin (Sigma, 100 U, LMW) and Sheep Brain Extract prepared (REF). All cultures were maintained on Fibrobronectin (2 μg/ml) coated plates. For TEER analysis a 96 well ECIS system (96W10idf PET array, Applied BioPhysics) was employed. Wells were coated with Fibronectin (2 μg/ml) resuspended in saline for 30 minutes at room temp. HUVECs were harvested, resuspended in HGM at a cell density of 25-30×10^3 cells/well and allowed to adhere overnight. Prior to analysis, culture media was removed and replaced with M199 media supplemented with Pen-Strep/Glutamine and 1% FCS for 30 minutes. For stimulation studies, either Iloprost (Cayman Biochemicals) or Iloprost loaded onto ApoA1 or ApoA1-ApoM chaperones, or S1P prepared on ApoA1-ApoM or ApoM-Fc chaperones were added to cultures and TEER studies were performed from 3-24 hours.

human platelets = test: Human platelet aggregation in vitro (light transmission aggregometry); format: cell-based; conditions: SFLLRN peptide-induced, 2-20 nM drug, N=2, read-out: EC50 of inhibition of platelet aggregation
Experimental: Whole blood samples were drawn from healthy donors in the presence of 10% sodium citrate (Sigma, 5577-50 ml) and were spun at 1000 rpm using Beckman centrifuge (GS-6K) for 20 min. The top Platelet-rich Plasma (PRP) layer was collected resting at a 37° C. water bath for 30 minutes. PRP was diluted with the one-fifth volume of the acid-citrate-dextrose buffer, Prostaglandin E1 (PGE1) was added to a final concentration of 0.15 μM. The mixture was spun in a conical-bottom tube at 2000 g for 10 min, and the platelet pellet was collected and suspended in pre-warmed HEPES-Tyrode-Glucose Buffer (HTG). The platelet concentration was determined and adjusted to ˜2.5×10^5/μL with HTG on a Hematology cell counter System (Drew Scientific, 850FS).
Light Transmission Aggregometry was used to evaluate the platelet response to agonists and antagonists. In a 4-channel aggregometer (Platelet ionized calcium aggregometer, Chronolog Corp Model 660), human platelets were stirred in a cuvette at 37° C. […] Data were analyzed using AGGRO/LINK software package Ver 5.2.5 and Microsoft office professional plus 2013.

NF-κB = test: TNFα-induced NF-κB luciferase reporter assay in HMEC; format: cell-based, human
Experimental: TNFα-dependent NF-κB signaling was determined by using an NFκB-Luciferase based reporter assay system (pGL4.32[luc2P/NF-κB-RE/Hygro]; Promega). A stable NFκB reporter cell line in human microvascular endothelial cells (HMEC-1; ATCC) was created. HMEC were maintained in 10% FCS/Pen-Strep MCDB media supplemented with 2 mM L-Glutamine (Sigma), EGF (2 ng/ml; R&D systems) and Hydrocortisone (1 ng/ml; Sigma). […] The 5×10^5 reporter cells were distributed to 12 well plates and allowed to adhere for 24 hours. Media was replaced with MCDB media supplemented with 1% FCS, L-Glutamine. […] Samples were extracted using cell lysis buffers (Promega), luciferin substrate was added and the plates were measured for […] at 470 nm for 8-15 minutes in a SpectraMax L 96-well plate reader (Molecular Devices).

Molecule: O=C(O)CCNCc1ccc2sc(-c3ccc(-c4ccccc4)c(C(F)(F)F)c3)cc2c1 [AUY954, reference compound]
- endothelial barrier function in combination with Iloprost (HUVEC): additive manner

- EC50 (human platelets): ~11 nM
Molecule: CC#CCC(C)[C@H](O)/C=C/[C@@H]1[C@H]2C/C(=C/CCCC(=O)O)C[C@H]2C[C@H]1O (stereo partly shown) [Iloprost]

- inhibition of TNFα-induced NF-κB activity at higher doses (NF-κB; 100-400 μg/ml, bi-phasic dose-response): not as inhibitory
- inhibition of TNFα-induced NF-κB activity (NF-κB; low doses 25-50 μg/ml): ~25%
Molecule: ApoA1: Purified Human ApoA1 (Sigma) [reference compound]
